Structures are written as SMILES. Converted amounts (≈) assume the structure as drawn.

Series [1] in a line: AUC (0 to last) in rat at 100 mg/kg. In kind it is ADME, organism-based. Also on record: dose 100 mg/kg, time 0 - last. The note with it: in vivo.
Series [2] in a line: AUC (0 to last) in rat at 300 mg/kg. Also on record: dose 300 mg/kg, time 0 - last. It is filed as ADME, organism-based. The note with it: in vivo.
Series [3] can be described thus: Thermodynamic solubility of the compound. It is filed as physicochemical. The conditions noted are these: read-out: Therm_solubility.
Series [4] deals with Mus musculus. Kind of series: Reversal of thermal injury-induced muscle damage in C57BL/6 mouse assessed as reduction in Evans blue dye retention time at 10 mg/kg, po administered once daily via gavage treated for 10 days prior to thermal injury on day 4 and subsequent Evans blue dye injection on day 8 measured on day 9 post last dose relative to control. In kind it is functional. Also on record: scale not given: the % may be the effect or the level left.

Series [5] concerns Rattus norvegicus. Put plainly: Tumorigenic activity in rat assessed as effect on cell proliferation in non-glandular stomach at 30 mg/kg administered for 14 days measured on post last dose by Ki-67 staining based histopathological analysis relative to control. In kind it is ADME, organism-based. The conditions noted are these: in vivo, 336 h.
In series [6] the test system is Rattus norvegicus. Kind of series: Tumorigenic activity in rat assessed as effect on cell proliferation in non-glandular stomach at 100 mg/kg administered for 14 days measured on post last dose by Ki-67 staining based histopathological analysis relative to control. It is filed as ADME, organism-based. The conditions noted are these: in vivo, 336 h.
The subject of series [7] is Rattus norvegicus. Kind of series: Tumorigenic activity in rat assessed as effect on cell proliferation in non-glandular stomach at 300 mg/kg administered for 6 days and subsequent treatment at 200 mg/kg for 3 days measured on post last dose by Ki-67 staining based histopathological analysis relative to control. It is filed as ADME, organism-based. The conditions noted are these: in vivo.

In series [8] the test system is Rattus norvegicus. Put plainly: Toxicity in rat assessed as reduction in body weight at 300 mg/kg administered for 6 days. The conditions noted are these: in vivo, 144 h. It is filed as organism-based.
Series [9] has as its system Rattus norvegicus. Put plainly: Toxicity in rat assessed as effect on food intake at 300 mg/kg administered for 6 days. In kind it is organism-based. The conditions noted are these: in vivo, 144 h.
The nature of series [10]: AUC (0 to last) in rat at 30 mg/kg. It is filed as ADME, organism-based. The conditions noted are these: in vivo. Also on record: dose 30 mg/kg, time 0 - last.
Series [11] can be described thus: AUC (0 to last) in rat at 300 mg/kg measured on day 8. In kind it is ADME, organism-based. The note with it: in vivo. Also on record: dose 300 mg/kg, time 0 - last.

What is called AUC(0-t) is exposure summed from dosing to a finite time, without extrapolation to infinity. Consider `C/C(=C\COc1ccccc1CN(C)C(=O)c1ccc(-c2ccco2)cc1)CCC(=O)O`, for which the AUC(0-t) in series [1] came out at 48 µg·h/mL; in series [2], 201 µg·h/mL.

With `Cc1cc(SCc2sc(-c3ccc(C(F)(F)F)cc3)nc2C)ccc1OCC(=O)O` [GW501516], the solubility thermodynamic in series [3] was 250 µM (≈ 113 µg/mL). For the same compound, the Activity in series [4] is given as 48%; in series [5] it was 34%; in series [6], 81%; in series [7] it was 190%; in series [8], “Toxic”; in series [9], “Toxic”. Further, the exposure AUC(0-t) was 72 µg·h/mL in series [10], 613 µg·h/mL in [1] and 2270 µg·h/mL in series [11].

For the origin of these results see ChEMBL document CHEMBL4184082 (Bioorg Med Chem Lett, 2018).
